Test results reported in the supplement of paper PMC10307832.

Columns and labels:
Assay in all cases: relative viability (nuclei count vs DMSO), 5 days (fraction); higher = more cells survive
[1] = compound: CC[C@H](CO)Nc1nc(NCc2ccccc2)c2ncn(C(C)C)c2n1 [Seliciclib] + COc1cc2c(Oc3ccc(NC(=O)C4(C(=O)Nc5ccc(F)cc5)CC4)cc3F)ccnc2cc1OCCCN1CCOCC1 [Foretinib] (partner 0.25 µM)
Procedure, shortened: (§1)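 Values are medians from duplicate plates. Each reflects relative viability, defined as the nuclei count of treated wells over that of vehicle wells. Lung cancer cell lines in 1536-well plates were pin-tool dosed one day after seeding with one drug alone or with a fixed anchor-drug dose plus five library-drug doses (not always all listed) in √10 steps, then fixed, stained and imaged at 4× after 5 days.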

[2] = compound: CC[C@H](CO)Nc1nc(NCc2ccccc2)c2ncn(C(C)C)c2n1 [Seliciclib] + CCNC(=O)c1noc(-c2cc(C(C)C)c(O)cc2O)c1-c1ccc(CN2CCOCC2)cc1 [Luminespib] (partner 0.01 µM)
Procedure, shortened: as §1

[3] = compound: CC[C@H](CO)Nc1nc(NCc2ccccc2)c2ncn(C(C)C)c2n1 [Seliciclib] + Cc1cc(Nc2cc(N3CCN(C)CC3)nc(Sc3ccc(NC(=O)C4CC4)cc3)n2)n[nH]1 [Tozasertib] (partner 0.1 µM)
Procedure, shortened: as §1

[4] = compound: CC[C@H](CO)Nc1nc(NCc2ccccc2)c2ncn(C(C)C)c2n1 [Seliciclib] + NC(=O)Nc1cc(-c2cccc(F)c2)sc1C(=O)N[C@H]1CCCNC1 [AZD7762] (partner 0.2 µM)
Procedure, shortened: as §1

Cell Line | relative viability ([1]; first compound 0.08 µM) | relative viability ([1]; first compound 0.253 µM) | relative viability ([1]; first compound 0.8 µM) | relative viability ([1]; first compound 2.53 µM) | relative viability ([1]; first compound 8 µM) | relative viability ([2]; first compound 0.253 µM) | relative viability ([2]; first compound 0.8 µM) | relative viability ([2]; first compound 2.53 µM) | relative viability ([2]; first compound 8 µM) | relative viability ([3]; first compound 0.253 µM) | relative viability ([3]; first compound 0.8 µM) | relative viability ([3]; first compound 2.53 µM) | relative viability ([3]; first compound 8 µM) | relative viability ([4]; first compound 0.08 µM) | relative viability ([4]; first compound 0.253 µM) | relative viability ([4]; first compound 0.8 µM) | relative viability ([4]; first compound 2.53 µM) | relative viability ([4]; first compound 8 µM) | relative viability ([2]; first compound 0.08 µM) | relative viability ([3]; first compound 0.08 µM)
EBC-1 | 0.124 | 0.103 | 0.105 | 0.125 | 0.108 | – | – | – | – | – | – | – | – | – | – | – | – | – | – | –
EKVX | – | 0.887 | 0.533 | 0.756 | 0.77 | 1.03 | 0.794 | 0.821 | 0.642 | 0.453 | 0.372 | 0.363 | 0.322 | 0.767 | 0.767 | 0.791 | 0.642 | 0.711 | – | –
EMC-BAC-2 | 1.02 | 0.94 | 0.955 | 1.02 | 0.909 | 1.02 | 1.15 | 1.16 | 1.11 | 0.242 | 0.318 | 0.274 | 0.257 | 1.2 | 1.21 | 1.25 | 0.794 | 0.946 | 1.15 | 0.257
EPLC-272H | 0.707 | 0.72 | 0.56 | 0.623 | 0.494 | 0.204 | 0.214 | 0.177 | 0.231 | 0.231 | 0.297 | 0.181 | 0.153 | 0.203 | 0.17 | 0.208 | 0.329 | 0.347 | 0.297 | 0.247
H3255 | 0.808 | 1.01 | 0.51 | 0.806 | 0.895 | 1.05 | 0.94 | 0.833 | 0.917 | 0.645 | 0.585 | 0.507 | 0.604 | 0.811 | 0.848 | 0.951 | 0.839 | 0.823 | 0.868 | 0.588
HARA | 0.95 | 1.06 | 0.943 | 0.982 | 0.714 | 0.764 | 0.65 | 1.12 | 0.581 | 0.0958 | 0.111 | 0.782 | 0.0956 | 0.348 | 0.293 | 0.381 | 0.596 | 0.908 | 0.727 | 0.0937
HCC-15 | 1.06 | 1.13 | 0.968 | 0.959 | 0.724 | 0.386 | 0.304 | 0.33 | 0.309 | 0.502 | 0.372 | 0.443 | 0.331 | 1.09 | 1.37 | 1.22 | 1.19 | 1.02 | 0.275 | 0.403
HCC-44 | – | – | – | – | – | 1.07 | 1.01 | 0.997 | 0.726 | 1.19 | 0.969 | 0.861 | 0.791 | 1.02 | 1.05 | 1.12 | 1.12 | 0.944 | 0.913 | 0.858
HCC-78 | 0.535 | 0.574 | 0.445 | 0.41 | 0.457 | – | – | – | – | 0.405 | 0.411 | 0.39 | 0.381 | 0.689 | 0.66 | 0.62 | 0.525 | 0.51 | – | 0.367
